“And” between values parts separate entries of the source, which are not always exact repeats. Identical values can stand only once.
System: NCI-H1876 tumor spheroid viability
Test: Anticancer human tumor NCI-H1876 cell line growth inhibition;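 further: spheroids exposed to compounds for seven days before the viability read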;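 on viability, T/C: percent of DMSO vehicle control viability so 100% = vehicle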
Details: spheroids with HUVEC and MSC; for viability, T/C: stronger effect = lower value; active means viability on the fitted dose curve at most 10% of control; inactive means the rest
Procedure, shortened: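 Single agents and combinations were tested on spheroids built from tumor cells plus HUVEC and hMSC, at half-log dilutions starting at or near clinical Cmax, else 10 microM; final DMSO 0.25% (v/v).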

COc1ccc([C@@H](O)c2cc(-c3ncnc4cc(N5CCOCC5)ccc34)c(F)cc2Cl)nn1 + CC[C@@]1(O)C(=O)OCc2c1cc1n(c2=O)Cc2cc3c(CN(C)C)c(O)ccc3nc2-1
active: viability, T/C (second compound 0.00949 µM, first compound 3.16 µM) 8.75% | viability, T/C (second compound 0.00949 µM, first compound 10 µM) 5.67% | viability, T/C (second compound 0.03 µM, first compound 0.0316 µM) 3.61% | viability, T/C (second compound 0.03 µM, first compound 0.1 µM) 6.14% | viability, T/C (second compound 0.03 µM, first compound 0.316 µM) 3.33% | viability, T/C (second compound 0.03 µM, first compound 1 µM) 3.01% | viability, T/C (second compound 0.03 µM, first compound 3.16 µM) 2.56% | viability, T/C (second compound 0.03 µM, first compound 10 µM) 2.82% | viability, T/C (second compound 0.0949 µM, first compound 0.0316 µM) 2.02% | viability, T/C (second compound 0.0949 µM, first compound 0.1 µM) 2.62% | viability, T/C (second compound 0.0949 µM, first compound 0.316 µM) 2.15% | viability, T/C (second compound 0.0949 µM, first compound 1 µM) 2.18% | viability, T/C (second compound 0.0949 µM, first compound 3.16 µM) 1.69% | viability, T/C (second compound 0.0949 µM, first compound 10 µM) 2.92% | viability, T/C (second compound 0.3 µM, first compound 0.0316 µM) 1.88% | viability, T/C (second compound 0.3 µM, first compound 0.1 µM) 1.98% | viability, T/C (second compound 0.3 µM, first compound 0.316 µM) 1.62% | viability, T/C (second compound 0.3 µM, first compound 1 µM) 1.27% | viability, T/C (second compound 0.3 µM, first compound 3.16 µM) 1.46% | viability, T/C (second compound 0.3 µM, first compound 10 µM) 1.93%
< 31.6 nM: IC50 (curve of first compound, second compound 0.00949 µM) | IC50 (curve of first compound, second compound 0.03 µM) | IC50 (curve of first compound, second compound 0.0949 µM) | IC50 (curve of first compound, second compound 0.3 µM)
inactive: viability, T/C (second compound 0.003 µM, first compound 0.0316 µM) 88.7% | viability, T/C (second compound 0.003 µM, first compound 0.1 µM) 83.7% | viability, T/C (second compound 0.003 µM, first compound 0.316 µM) 85.3% | viability, T/C (second compound 0.003 µM, first compound 1 µM) 67.1% | viability, T/C (second compound 0.003 µM, first compound 3.16 µM) 27.6% | viability, T/C (second compound 0.003 µM, first compound 10 µM) 10.9% | viability, T/C (second compound 0.00949 µM, first compound 0.0316 µM) 15.9% | viability, T/C (second compound 0.00949 µM, first compound 0.1 µM) 15.2% | viability, T/C (second compound 0.00949 µM, first compound 0.316 µM) 17.8% | viability, T/C (second compound 0.00949 µM, first compound 1 µM) 12.2%
1650 nM: IC50 (curve of first compound, second compound 0.003 µM)

CC1COCCN1c1cc(-c2ccnn2C)c2ccnc(-c3ccn[nH]3)c2n1 (configuration not stated)
6.97% and 20% and 7.21%: viability, T/C (compound 1 µM)
39.1 nM and 121 nM and 73.6 nM: IC50 (curve of compound)
active: viability, T/C (compound 10 µM) 2.37% and 7.33% and 2.52%
3.09% and 11.9% and 3.22%: viability, T/C (compound 3.16 µM)
inactive: viability, T/C (compound 0.0316 µM) 54% and 61.9% and 73.3% | viability, T/C (compound 0.1 µM) 32.2% and 41.5% and 41.2% | viability, T/C (compound 0.316 µM) 18.1% and 48.3% and 20.1%

CNCc1ccc(-c2cc(-c3nc(-c4ccc(S(=O)(=O)C(C)C)cc4)cnc3N)on2)cc1 + Cn1nnc2c(C(N)=O)ncn2c1=O
inactive: viability, T/C (second compound 1 µM, first compound 0.00949 µM) 82% | viability, T/C (second compound 1 µM, first compound 0.03 µM) 70.7% | viability, T/C (second compound 1 µM, first compound 0.0949 µM) 54.9% | viability, T/C (second compound 1 µM, first compound 0.3 µM) 33.6% | viability, T/C (second compound 1 µM, first compound 0.949 µM) 12.6% | viability, T/C (second compound 3.16 µM, first compound 0.00949 µM) 95.4% | viability, T/C (second compound 3.16 µM, first compound 0.03 µM) 54.9% | viability, T/C (second compound 3.16 µM, first compound 0.0949 µM) 55.4% | viability, T/C (second compound 3.16 µM, first compound 0.3 µM) 29.7% | viability, T/C (second compound 3.16 µM, first compound 0.949 µM) 15.2% | viability, T/C (second compound 10 µM, first compound 0.00949 µM) 86.9% | viability, T/C (second compound 10 µM, first compound 0.03 µM) 65.2% | viability, T/C (second compound 10 µM, first compound 0.0949 µM) 54% | viability, T/C (second compound 10 µM, first compound 0.3 µM) 29.9% | viability, T/C (second compound 10 µM, first compound 0.949 µM) 13.1% | viability, T/C (second compound 31.6 µM, first compound 0.00949 µM) 82% | viability, T/C (second compound 31.6 µM, first compound 0.03 µM) 57.8% | viability, T/C (second compound 31.6 µM, first compound 0.0949 µM) 58.2% | viability, T/C (second compound 31.6 µM, first compound 0.3 µM) 30.1% | viability, T/C (second compound 31.6 µM, first compound 0.949 µM) 51.8% | viability, T/C (second compound 31.6 µM, first compound 3 µM) 45.7% | viability, T/C (second compound 100 µM, first compound 0.00949 µM) 50.8% | viability, T/C (second compound 100 µM, first compound 0.03 µM) 43% | viability, T/C (second compound 100 µM, first compound 0.0949 µM) 36.5% | viability, T/C (second compound 100 µM, first compound 0.3 µM) 20.9% | viability, T/C (second compound 100 µM, first compound 0.949 µM) 47.9%
83.7 nM: IC50 (curve of first compound, second compound 3.16 µM)
active: viability, T/C (second compound 1 µM, first compound 3 µM) 0.35% | viability, T/C (second compound 3.16 µM, first compound 3 µM) 0.44% | viability, T/C (second compound 10 µM, first compound 3 µM) 11% | viability, T/C (second compound 100 µM, first compound 3 µM) 0.26%
121 nM: IC50 (curve of first compound, second compound 1 µM)
< 9.49 nM: IC50 (curve of first compound, second compound 100 µM)
92.3 nM: IC50 (curve of first compound, second compound 10 µM)
89.3 nM: IC50 (curve of first compound, second compound 31.6 µM)
